From US4001414A, “1,3,4-Trimethyl-2-(3,4,5-trimethoxybenzyl)-1,2,5,6-tetrahydropyridine and analgesic composition and method using it” (priority 1974, dated 1977)

How the values were obtained:
[1] = tested on: acetic acid-induced writhing; assay: Analgesic activity, acetic acid-induced writhing technique; format: in vivo, albino I.C.R. Swiss mice; details: for No. of writhes (x ± M.S.E.): acetic acid 0.25 ml of 1% i.p. after 30 minutes, writhes counted in 20 minutes, p <0.001, control 112.2 ± 4.2, average value ± mean standard error; for analgesic activity (in words): as may be seen from Table B, mice
Protocol: The analgesic activity was investigated in albino I.C.R. Swiss mice, using the acetic acid-induced writhing technique. Groups each of 10 mice were assembled.
The analgesics were injected intraperitoneally, and after 30 minutes 0.25 ml of a 1% solution of acetic acid was injected intraperitoneally. A control group received only acetic acid. The numbers of writhes made by each mouse was counted in the 20 minutes following administration of the acetic acid.

[2] = Acute toxicity (LD50), i.p., method of Litchfield and Wilcoxon; details: mouse, in vivo, ip; I.C.R. Swiss mice, both sexes, 30 ± 2 g, intraperitoneal
Protocol: Acute toxicity studies were conducted in I.C.R. Swiss mice weighing 30 ± 2 g, of both sexes. The products were administered intraperitoneally (i.p.). The acute toxicity calculations were made by the method of Litchfield and Wilcoxon.

Structure (SMILES) | No. of writhes (x ± M.S.E.) ([1]; 25 mg/kg i.p.) | No. of writhes (x ± M.S.E.) ([1]; 20 mg/kg i.p.) | analgesic activity (in words) ([1]; 20 mg/kg i.p.) | LD50 [2] [mg/kg]
CCC(=O)O[C@](Cc1ccccc1)(c1ccccc1)[C@H](C)CN(C)C [Dextropropoxyphene, reference compound] | 22.8 ± 4.74 | – | – | –
COc1cc(CC2C(C)=C(C)CCN2C)cc(OC)c1OC (stereo not drawn) [Product I, 1,3,4-trimethyl-2-(3,4,5-trimethoxybenzyl)-1,2,5,6-tetrahydropyridine] | – | 74.5 ± 4.84 | have analgesic activity | –
COc1cc(C[N+]2(C)CCC(C)=C(C)C2)cc(OC)c1OC.[Cl-] (stereo not drawn) [Product II, 1,3,4-trimethyl-1-(3,4,5-trimethoxybenzyl)-1,2,5,6-tetrahydropyridinium chloride] | – | 53.6 ± 4.7 | have analgesic activity | 77
